# Measurements from ChEMBL document CHEMBL5537132, “Reassessing the putative molecular Target(s) of potent antitubercular 2-(Alkylsulfonyl)acetamides” (2024).
# Experiments:
# Assay type in all cases: functional
# [1] = tested on: Mycobacterium tuberculosis; experiment: Antitubercular activity against Mycobacterium tuberculosis
# [2] = tested on: Mycobacterium tuberculosis; experiment: Antitubercular activity against Mycobacterium tuberculosis H37Rv assessed as inhibition of bacterial growth by BACTEC radiometric assay
# [3] = tested on: Mycobacterium tuberculosis; experiment: Antitubercular activity against Mycobacterium tuberculosis H37Rv assessed as minimum inhibitory concentration incubated for 5 days by resazurin staining based fluorescent plate reader analysis; settings: 120 h, time 5 day
# [4] = tested on: Mycobacterium tuberculosis; experiment: Antitubercular activity against Mycobacterium tuberculosis H37Rv assessed as inhibition of bacterial growth by colorimetric microdilution broth assay
# [5] = tested on: Mycobacterium tuberculosis; experiment: Antitubercular activity against Mycobacterium tuberculosis H37Rv assessed as bacterial growth incubated for 5 days by resazurin staining based fluorescent plate reader analysis relative to control; settings: time 5 day
Structure (SMILES),MIC [1] [µM],MIC90 [3] [µg/mL],further results
CCCCCCS(=O)(=O)CC(N)=O,241,,
NC(=O)CS(=O)(=O)CCCCc1ccccc1,> 100,,MIC [2]: > 25 µg/mL
CCCCCCCCS(=O)(=O)CC(N)=O,27,,
CCCCCCCCS(=O)(=O)CC(=O)O,,,MIC [2]: > 25 µg/mL
CCCCCCCCCCCCCCCCCCS(=O)(=O)CC(N)=O,> 133,,
CCCCCCCCCCS(=O)(=O)CC(N)=O,2.9,1.32,
CCCCCCCS(=O)(=O)CC(N)=O,> 113,,
CCCCCCCCCCCCS(=O)(=O)CC(N)=O,43,,
CCCCCCCCCCCC(=O)NS(=O)(=O)OC[C@H]1O[C@@H](n2cnc3c(N)ncnc32)[C@H](O)[C@@H]1O,0.2,,
NC[C@H]1O[C@@H](n2cnc3c(N)ncnc32)[C@H](O)[C@@H]1O,,,MIC [4]: > 100 µg/mL
NC(=O)CS(=O)(=O)CCCCCc1ccccc1,46,,MIC [2]: 12.5 µg/mL
CCCCCCCCCS(=O)(=O)CC(N)=O,12,,
CCCCCCCCCCCCOP(=O)(O)OC[C@H]1O[C@@H](n2cnc3c(N)ncnc32)[C@H](O)[C@@H]1O,1.9,,
Nc1ncnc2c1ncn2[C@@H]1O[C@H](COS(=O)(=O)NC(=O)CCCCCCCCCCOc2ccccc2)[C@@H](O)[C@H]1O,3.1,,
CCCCCCCCCOCC(=O)NS(=O)(=O)OC[C@H]1O[C@@H](n2cnc3c(N)ncnc32)[C@H](O)[C@@H]1O,0.1,,
[N-]=[N+]=NCCCCCCCCCCCC(=O)NS(=O)(=O)OC[C@H]1O[C@@H](n2cnc3c(N)ncnc32)[C@H](O)[C@@H]1O,0.2,,
NC(=O)CS(=O)(=O)CCCCCCC1C=CC=CC1 (stereo not drawn),44,,MIC [2]: 12.5 µg/mL
CCCCCCCCCCS(=O)(=O)CC(=O)NC[C@H]1O[C@@H](n2cnc3c(N)ncnc32)[C@H](O)[C@@H]1O,,,Activity [5]: 100%
CCCCCCCCCCS(=O)(=O)Cc1cn(C[C@H]2O[C@H](OCc3ccccc3)[C@@H](O)[C@@H](O)[C@@H]2O)nn1,,> 50,
CCCCCCCCCCS(=O)(=O)Cc1cn(CCCCn2c(=O)oc3ccccc32)nn1,,> 50,
CCCCCCCCCCS(=O)(=O)Cc1nc2ccccc2oc1=O,,5.85,
CCCCCCCCCCCS(=O)(=O)CC(N)=O,,1.39,
CCCCCCCCCCS(=O)(=O)CC(=O)NC[C@H]1O[C@H](OCc2ccccc2)[C@@H](O)[C@@H](O)[C@@H]1O,,> 50,
NC(=O)CS(=O)(=O)CCCCCCCCCCc1ccccc1,,13,
CCCCCCCCCCCCCCCCCCCCOP(=O)(O)OC[C@H]1O[C@@H](n2cnc3c(N)ncnc32)[C@H](O)[C@@H]1O,0.9,,
CCCCCCCCCCS(=O)(=O)Cc1cn(CCCn2cnc3ccccc32)nn1,,> 50,
CCCCCCCCCCS(=O)(=O)Cc1cn(C[C@H]2O[C@@H](n3cnc4c(N)ncnc43)[C@H](O)[C@@H]2O)nn1,,> 50,
NC(=O)CS(=O)(=O)Cc1ccccc1,,> 50,
NC(=O)CS(=O)(=O)CCCCCCCCc1ccccc1,,16,
